Assay results published in patent US11471537B2, “Oligomer extended insulin-Fc conjugates” (Novo Nordisk A/S, priority 2017, dated 2022).

Columns and labels:
[1] = PK studies: intravenous and subcutaneous administration to SD rats, insulin-Fc concentrations by immuno-assay; format: in vivo
Procedure: Insulin-Fc conjugates were tested in vivo by intravenous and subcutaneous administration to SD rats. Blood samples were collected and the insulin-Fc concentrations were measured by immuno-assay.

Sprague-Dawley rats = experiment: PD studies: blood glucose after subcutaneous dosing; format: in vivo; details: sc, dose 30 nmol/kg
Summary of the method: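 Normal male Sprague-Dawley rats (~350 g), fed ad libitum, received a single subcutaneous neck dose of 30 nmol/kg unless otherwise stated. Tongue-vein blood was sampled up to 10 days post-dose for blood glucose (Biosen analyser) and plasma insulin.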

isolated rat adipocytes = experiment: Insulin-stimulated lipogenesis; format: cell-based; details: 1% HSA; relative to the activity of human insulin (100%)
Procedure: Insulin-stimulated lipogenesis was measured in isolated rat adipocytes in presence of 1% HSA as described in Moody A J, Stan M A, Stan M, Gliemann J. A Simple Free Fat Cell Bioassay for Insulin. Hormone And Metabolic Research. 1974; 6(1):12-6, see results in Table 6.

insulin receptor A = insulin receptor A (Homo sapiens, UniProt P06213); experiment: Insulin receptor affinity; format: binding; details: relative to affinity of human insulin for insulin receptor A (100%)
Chain of insulin receptor A (P06213 28-1370 isoform P06213-2 limits assumed): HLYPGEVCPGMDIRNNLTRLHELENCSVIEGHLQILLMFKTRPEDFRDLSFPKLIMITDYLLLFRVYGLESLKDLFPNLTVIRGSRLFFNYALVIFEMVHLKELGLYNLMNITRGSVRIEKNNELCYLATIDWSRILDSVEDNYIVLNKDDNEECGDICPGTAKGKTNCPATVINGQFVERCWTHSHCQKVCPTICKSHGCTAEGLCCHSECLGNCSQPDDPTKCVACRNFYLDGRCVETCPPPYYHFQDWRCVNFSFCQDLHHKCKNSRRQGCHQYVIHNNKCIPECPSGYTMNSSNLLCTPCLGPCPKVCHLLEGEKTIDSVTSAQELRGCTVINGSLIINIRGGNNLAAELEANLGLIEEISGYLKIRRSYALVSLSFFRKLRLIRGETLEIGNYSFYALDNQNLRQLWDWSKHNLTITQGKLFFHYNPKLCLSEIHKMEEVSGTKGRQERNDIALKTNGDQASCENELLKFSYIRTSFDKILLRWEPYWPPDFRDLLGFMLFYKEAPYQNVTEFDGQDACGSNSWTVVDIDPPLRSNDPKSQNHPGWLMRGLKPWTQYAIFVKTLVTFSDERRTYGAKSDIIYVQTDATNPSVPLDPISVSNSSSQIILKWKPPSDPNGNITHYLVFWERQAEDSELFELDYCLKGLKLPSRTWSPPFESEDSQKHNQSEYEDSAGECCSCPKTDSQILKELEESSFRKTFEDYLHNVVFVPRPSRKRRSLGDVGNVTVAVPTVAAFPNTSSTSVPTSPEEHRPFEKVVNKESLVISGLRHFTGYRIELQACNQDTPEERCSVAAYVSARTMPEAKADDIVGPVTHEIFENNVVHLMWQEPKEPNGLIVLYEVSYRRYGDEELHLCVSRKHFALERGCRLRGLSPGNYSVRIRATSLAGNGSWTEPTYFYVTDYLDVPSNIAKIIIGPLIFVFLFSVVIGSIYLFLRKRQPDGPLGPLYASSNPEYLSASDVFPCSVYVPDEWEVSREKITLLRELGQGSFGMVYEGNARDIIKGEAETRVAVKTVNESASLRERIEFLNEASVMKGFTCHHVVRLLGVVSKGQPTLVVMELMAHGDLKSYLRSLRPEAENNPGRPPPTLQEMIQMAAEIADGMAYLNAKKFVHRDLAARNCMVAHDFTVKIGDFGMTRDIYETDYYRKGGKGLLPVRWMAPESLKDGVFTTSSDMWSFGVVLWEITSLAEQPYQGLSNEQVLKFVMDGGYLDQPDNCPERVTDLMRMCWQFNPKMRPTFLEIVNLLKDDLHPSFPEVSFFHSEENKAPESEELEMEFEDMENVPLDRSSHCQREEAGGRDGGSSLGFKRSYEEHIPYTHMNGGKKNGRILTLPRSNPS
Chain of insulin receptor A (P06213 763-1382 partner limits assumed): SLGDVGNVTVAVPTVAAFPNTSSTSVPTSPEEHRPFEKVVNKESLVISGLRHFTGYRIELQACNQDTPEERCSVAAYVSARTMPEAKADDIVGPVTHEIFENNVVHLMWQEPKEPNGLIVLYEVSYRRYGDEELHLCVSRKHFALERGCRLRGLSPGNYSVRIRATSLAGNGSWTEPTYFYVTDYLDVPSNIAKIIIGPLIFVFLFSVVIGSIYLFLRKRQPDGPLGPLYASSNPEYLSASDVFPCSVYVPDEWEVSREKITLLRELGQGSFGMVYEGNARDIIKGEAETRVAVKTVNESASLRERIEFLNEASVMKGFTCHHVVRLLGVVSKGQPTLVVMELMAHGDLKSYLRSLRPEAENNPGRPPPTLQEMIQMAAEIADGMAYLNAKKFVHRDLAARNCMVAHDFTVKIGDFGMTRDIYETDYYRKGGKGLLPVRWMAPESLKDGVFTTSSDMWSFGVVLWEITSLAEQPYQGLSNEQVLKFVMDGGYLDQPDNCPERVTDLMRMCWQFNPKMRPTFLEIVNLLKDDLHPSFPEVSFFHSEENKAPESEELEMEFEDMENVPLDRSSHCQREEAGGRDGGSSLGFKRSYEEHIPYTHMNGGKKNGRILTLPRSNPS

For “A14E, A21G, A22(GQEP)12, A70K^, A71P, B25H, B29R, desB30 human insulin/(227A, 234A, 235K, 297E, 315Q, 384Q, des447 hIgG4-Fc(228-447))4-[bis[2-[(2-acetyl)amino]ethyl]amino]-4-oxo-butanoyl Conjugate [Example 5.17]”, the “PK rat iv [T½ (h)] Mean Value” ([1]; intravenous) was 46.2 h, the “PK rat sc [T½ (h)] Mean Value” ([1]; subcutaneous) was 40.3 h and the Average blood glucose (Sprague-Dawley rats; time 0 days) was 6.372 mM. For the same substance, the Average blood glucose (Sprague-Dawley rats; time 0.041667 days) was 5.84 mM, the Average blood glucose (Sprague-Dawley rats; time 0.125 days) was 5.14 mM and the Average blood glucose (Sprague-Dawley rats; time 0.291667 days) was 3.672 mM. For the same substance, the Average blood glucose (Sprague-Dawley rats; time 1 day) was 2.6 mM, the Average blood glucose (Sprague-Dawley rats; time 2 days) was 2.704 mM and the Average blood glucose (Sprague-Dawley rats; time 3 days) was 2.772 mM. The Average blood glucose (Sprague-Dawley rats; time 4 days) was 5.232 mM, the Average blood glucose (Sprague-Dawley rats; time 6 days) was 5.88 mM and the Average blood glucose (Sprague-Dawley rats; time 7 days) was 5.908 mM. For the same substance, the Average blood glucose (Sprague-Dawley rats; time 8 days) was 5.656 mM, the “Lipogenesis in rat adipocytes [Potency (%)] Mean Value” (isolated rat adipocytes) was 4.39% and the “Insulin receptor affinity [IC50 relative to HI (%)] Mean Value” (insulin receptor A) was 3.98%.
